{"source": "patent US12459951B2", "about": "“Compounds that interact with RAS superfamily proteins for treatment of cancers, inflammatory diseases, rasopathies, and fibrotic disease” (SHY Therapeutics, LLC, priority 2022, dated 2025)", "key": {"[1]": {"system": "IL6", "assay": "IL-6 Quantification Assay (ELISA), LPS-stimulated RAW 264.7", "type": "cell-based", "design": "inhibition: dose or concentration left out as unconfirmed", "conditions": "Mus musculus, RAW264.7; read-out: IL-6: % inh."}, "[2]": {"system": "TNF-alpha", "assay": "TNF-alpha Quantification Assay (ELISA), LPS-stimulated RAW 264.7", "type": "cell-based", "conditions": "Mus musculus, RAW264.7; at 10 μM; read-out: TNFα: % inh."}, "[3]": {"system": "KRas G12D mutant", "assay": "Ras GTP Binding Domain Inhibition Assay (Ras Superfamily Assay)", "conditions": "20 μM compound", "excerpt": "(§1) Biological Example 3: Ras GTP Binding Domain Inhibition Assay\n(§2) The assays described in Example 3 are collectively referred to as the “Ras Superfamily Assay” throughout this application.\n(§3) A Ras Superfamily Activity Assay (as disclosed in International Application No. PCT/US2018/038613, filed Jun. 20, 2018, which is incorporated by reference in its entirety) was used as a specific assay to evaluate compounds against the following for the following Ras Superfamily proteins: KRas wild type, KRas Q61H mutant, KRas G12C mutant, KRas G12D mutant, Rac-1, and Rho-A.\n(§4) • 25 mM Tris-HCl, pH 7.4 • 27 mM KCl • 137 mM NaCl • 1 mM MgCl2 • 1 mM DTT Buffer-II: • 50 mM Tris-HCl, pH 7.0 • 1 mM MgCl2 • 1 mM DTT\n(§5) The small GTPases proteins: KRas wild type. KRas Q61H mutant, KRas G12C mutant, KRas G12D mutants, Rac-1, and Rho-A were expressed as His-tagged proteins. In addition, the Guanosine nucleotide Exchange Factor (GEF) Sos protein (residues 556-1049) was expressed as a His-tagged protein. In cells, the guanine nucleotide exchange factor Sos protein promotes activation of Ras proteins by stimulating an exchange of GDP for GTP. The inclusion of Sos to the Ras GTP binding domain inhibition assay may be considered as an alternative representation of physiological cellular conditions for evaluating the inhibitory activity of some of the tested small molecules.\n(§6) For the assay, all purified small GTPases proteins were diluted in Buffer-I or Buffer-II to a final concentration of 10-30 μg/mL. 200 μL of each diluted protein was added to a nickel-coated 96-well plate and incubated overnight at 4° C. Then the protein solution was discarded and 200 μL of Buffer-I or Buffer-II was added to each well in the presence of 1% DMSO. Compounds to be tested were added to the protein-coated wells at final concentration of 20 μM, and incubated for 3 hours at room temperature with and without 10-30 μg/mL of Sos added to the final hour of the incubation. When performing IC50 measurements a serial dilution of all tested concentrations was added. Then Cy3-GTP or Cy5-GTP was added to each well to a final concentration of 100 nM. The labeled GTP was incubated for 45 minutes at room temperature. Following GTP incubation, wells were washed 3× in Buffer-I or Buffer-II and 200 μL of Buffer-I or Buffer-II was added to each well. Following washes, the amount of bound labeled-GTP was measured using a SpectraMax M3 (Molecular Devices)."}, "[4]": {"molecular_target": "T1, Rac-1 (Homo sapiens, UniProt P63000)", "T1 construct": "made in house", "assay": "Ras GTP Binding Domain Inhibition Assay (Ras Superfamily Assay)", "conditions": "read-out: Rac-1: % inh.", "excerpt": "as §1, §2, §3, §4, §5, §6"}, "[5]": {"system": "KRas wild type", "assay": "Ras GTP Binding Domain Inhibition Assay (Ras Superfamily Assay)", "conditions": "20 μM compound", "excerpt": "as §1, §2, §3, §4, §5, §6"}}}
{"smiles": "COC(=O)c1c(-c2ccn(C)n2)cn2nc(-c3nccn3C)nc(N[C@H]3CC[C@H](OC)C3)c12", "note": "(racemic) [Compound 180, Methyl 4-(((1S,3S)-3-methoxycyclopentyl)amino)-2-(1-methyl-1H-imidazol-2-yl)-6-(1-methyl-1H-pyrazol-3-yl)pyrrolo[2,1-f][1,2,4]triazine-5-carboxylate]", "values": [{"measurement": "inhibition", "setting": "[1]", "result": "50 to 74", "unit": "%"}, {"measurement": "inhibition at 10 µM", "setting": "[2]", "result": "25 to 49", "unit": "%"}, {"measurement": "KRas G12D mutant + SOS: % inh.", "setting": "[3]; with SOS", "result": "A (A = 1-25% inhibition)"}, {"measurement": "KRas G12D mutant: % inh.", "setting": "[3]; without SOS", "result": "A (A = 1-25% inhibition)"}, {"measurement": "inhibition at 20 µM", "setting": "[4]", "result": "1 to 25", "unit": "%"}, {"measurement": "KRas wild type + SOS: % inh.", "setting": "[5]; with SOS", "result": "A (A = 1-25% inhibition)"}, {"measurement": "KRas wild type: % inh.", "setting": "[5]; without SOS", "result": "A (A = 1-25% inhibition)"}]}
